Values quoted from earlier work as cited in patent US6821979B2, “Synergistic enhancement of cognitive ability” (Blanchette Rockefeller Neurosciences Institute, priority 2002, dated 2004).
Values belong to the compound of their own block, whether it stands above or below them.

Tests used:
carbonic anhydrase [1] = conditions: conscious animals; CNS administration; other sensory and/or locomotor behaviors not affected
carbonic anhydrase [2] = conditions: single dose; electroencephalogram during rapid-eye-movement sleep
[3] = theophylline alone; literature studies
carbonic anhydrase [4] = conditions: rats; CNS administration

reduction of magnitudes of θ-wave frequency activity (carbonic anhydrase [2]): 50%
SMILES: CC(=O)Nc1nnc(S(N)(=O)=O)s1 [acetazolamide]
spatial learning (carbonic anhydrase [1]): impairs spatial learning

SMILES: Cn1c(=O)c2[nH]cnc2n(C)c1=O [theophylline]
effect on cognition [3]: insignificant

SMILES: c1c[nH]cn1 [imidazole]
ability to learn a water-maze task and to recall the maze from memory (carbonic anhydrase [4]): significantly enhances

SMILES: N[C@@H](Cc1ccccc1)C(=O)O [phenylalanine]
ability to learn a water-maze task and to recall the maze from memory (carbonic anhydrase [4]): significantly enhances
